Laboratory results taken from ChEMBL document CHEMBL5257127, “SolS-catalyzed sulfoxidation of labionin to solabionin drives antibacterial activity of solabiomycins” (2023).
Values after ≈ are worked out from the molar mass of the structure shown. Active and inactive are the calls of the source. The rule behind the calls is not given here.

Columns and labels:
Streptomyces nigrescens = experiment: Antibacterial activity against Streptomyces nigrescens HEK616 assessed as bacterial growth inhibition at 20 nmol by paper disc diffusion assay; format: functional, organism-based
Staphylococcus aureus [1] = experiment: Antibacterial activity against Staphylococcus aureus assessed as bacterial growth inhibition by paper disc diffusion assay; format: functional
[2] = system: Mycolicibacterium smegmatis; experiment: Antibacterial activity against Mycolicibacterium smegmatis assessed as bacterial growth inhibition by paper disc diffusion assay; format: functional
Escherichia coli [3] = experiment: Antibacterial activity against Escherichia coli RFM795 harboring lptD gene mutation assessed as bacterial growth inhibition at 20 nmol by paper disc diffusion assay; format: functional, organism-based
Streptomyces sp. [4] = experiment: Antibacterial activity against Streptomyces sp. assessed as bacterial growth inhibition at 20 nmol by paper disc diffusion assay; format: functional, organism-based
Saccharomyces cerevisiae = experiment: Antifungal activity against Saccharomyces cerevisiae assessed as fungal growth inhibition at 20 nmol by paper disc diffusion assay; format: functional, organism-based
Micrococcus luteus [5] = experiment: Antibacterial activity against Micrococcus luteus assessed as bacterial growth inhibition at 20 nmol by paper disc diffusion assay; format: functional, organism-based
Streptomyces sp. [6] = experiment: Antibacterial activity against Streptomyces sp. TP-A0584 assessed as bacterial growth inhibition at 20 nmol by paper disc diffusion assay; format: functional, organism-based
[7] = system: Mycolicibacterium smegmatis; experiment: Antibacterial activity against Mycolicibacterium smegmatis assessed as bacterial growth inhibition at 20 nmol by paper disc diffusion assay; format: functional, organism-based
Streptomyces lydicus = experiment: Antibacterial activity against Streptomyces lydicus assessed as bacterial growth inhibition at 20 nmol by paper disc diffusion assay; format: functional, organism-based
Candida albicans = experiment: Antifungal activity against Candida albicans assessed as fungal growth inhibition at 20 nmol by paper disc diffusion assay; format: functional, organism-based
Staphylococcus aureus [8] = experiment: Antibacterial activity against Staphylococcus aureus assessed as bacterial growth inhibition at 20 nmol by paper disc diffusion assay; format: functional, organism-based
Escherichia coli [9] = experiment: Antibacterial activity against Escherichia coli assessed as bacterial growth inhibition at 20 nmol by paper disc diffusion assay; format: functional, organism-based
[10] = system: Mycobacterium tuberculosis; experiment: Antibacterial activity against Mycobacterium tuberculosis H37Rv assessed as bacterial growth inhibition; format: functional
Micrococcus luteus [11] = experiment: Antibacterial activity against Micrococcus luteus assessed as bacterial growth inhibition by paper disc diffusion assay; format: functional

Structure (SMILES)	Activity (Streptomyces nigrescens)	MIC (Staphylococcus aureus [1]) [µM]	MIC [2] [µM]	Activity (Escherichia coli [3])	Activity (Streptomyces sp. [4])	Activity (Saccharomyces cerevisiae)	Activity (Micrococcus luteus [5])	Activity (Streptomyces sp. [6])	Activity [7]	Activity (Streptomyces lydicus)	Activity (Candida albicans)	Activity (Staphylococcus aureus [8])	Activity (Escherichia coli [9])	MIC [10] [µM]	MIC (Micrococcus luteus [11]) [µM]
C/C=C1/NC(=O)C(NC(=O)CNC(=O)CCCCCCCCCCCCNC(=N)N)CC2(C[S+]([O-])CC(C(=O)O)NC(=O)CNC(=O)CNC2=O)NC(=O)[C@H](C(C)C)NC1=O (stereo not given in full)	inactive	51.2 (≈ 45.2 µg/mL)	25.6 (≈ 22.6 µg/mL)	inactive	Active	inactive	Active	Active	Active	inactive	inactive	Active	Active	0.35 (≈ 0.309 µg/mL)	25.6 (≈ 22.6 µg/mL)
C/C=C1/NC(=O)C(NC(=O)CNC(=O)CCCCCCCCCCCCNC(=N)N)CC2(CSCC(C(=O)O)NC(=O)CNC(=O)CNC2=O)NC(=O)[C@H]([C@@H](C)CC)NC1=O (stereo not given in full)	inactive	51.2 (≈ 45.1 µg/mL)	25.6 (≈ 22.5 µg/mL)	inactive	Active		Active		Active	inactive		Active	Active		51.2 (≈ 45.1 µg/mL)
C/C=C1/NC(=O)C(NC(=O)CNC(=O)CCCCCCCCCCCCNC(=N)N)CC2(C[S+]([O-])CC(C(=O)O)NC(=O)CNC(=O)CNC2=O)NC(=O)[C@H]([C@@H](C)CC)NC1=O (stereo not given in full)	inactive	12.8 (≈ 11.5 µg/mL)	6.4 (≈ 5.73 µg/mL)	inactive	Active	inactive	Active	Active	Active	inactive	inactive	Active	Active	0.35 (≈ 0.314 µg/mL)	12.8 (≈ 11.5 µg/mL)
NC[C@H]1O[C@H](O[C@H]2[C@H](O)[C@@H](O[C@H]3O[C@H](CO)[C@@H](O)[C@H](N)[C@H]3O)[C@H](N)C[C@@H]2N)[C@H](O)[C@@H](O)[C@@H]1O [KANAMYCIN]		0.2 (≈ 0.0969 µg/mL)	1.6 (≈ 0.775 µg/mL)												12.8 (≈ 6.2 µg/mL)
C/C=C1/NC(=O)C(NC(=O)CNC(=O)CCCCCCCCCCCCNC(=N)N)CC2(CSCC(C(=O)O)NC(=O)CNC(=O)CNC2=O)NC(=O)[C@H](C(C)C)NC1=O (stereo not given in full)	inactive	102 (≈ 88.7 µg/mL)	51.2 (≈ 44.3 µg/mL)	inactive	Active		Active		Active	inactive		Active	Active		102 (≈ 88.7 µg/mL)
